# Columns and labels:
# [1] = Dynamic light scattering (vesicle size, cargo-carrier aggregates); type: physicochemical
# Protocol: DLS experiments were carried out on a Malvern Instruments DTS Nano 2000 Zeta-Sizer.
# Extended Data Fig. 1 Assays testing for stability vs leakage of the vesicles. a, Response of the HPTS/DPX assay towards a membrane-disrupting agent and chemical structures of the fluorescent dye HPTS and the quencher DPX. In this assay, large unilamellar vesicles are loaded with the HPTS/DPX probe/quencher pair, such that the fluorescence of HPTS is quenched. […] The cluster B12I12^2− (red trace) was identified as lytic agent because the mere addition of the cluster led to a fluorescence increase. […] In this assay, large unilamellar vesicles are loaded with CF at high concentration, such that the fluorescence is quenched. […] The cluster B12I12^2− (red trace) was identified as lytic agent because its mere addition led to a fluorescence increase. […] In b, e and f, Triton X-100 was added at t = 600 s to induce vesicle lysis and allow data normalization. Source data
# HeLa cells [2] = assay: Cytosolic TAMRA-R8 concentration (digitonin fractionation, fluorescence); type: cell-based; details: Extended Data Fig.5d; for concentration_uM, mean: mean of 4 experiments
# Protocol: Cytosolic extracts were obtained according to a previously described protocol[55] by incubation with digitonin, a steroidal saponin that preferentially permeabilizes cholesterol-rich membranes, such as the plasma membrane, with minor effects on intracellular membranes. […] Cells were incubated on ice with 600 µl of 35 µg ml^−1 digitonin in PBS Ca/Mg for 10 min, the supernatant with the cytosolic fraction collected and cells washed with 200 µl of PBS Ca/Mg, combining this supernatant with the previous extract. The non-cytosolic fraction was collected by incubation of the cells with 800 µl of 1% Triton X-100 in PBS. […] For the complementary HPLC analysis, phosphate buffer was replaced by TBS (20 mM Tris–HCl, pH 7.2, 150 mM NaCl, 0.5 mM CaCl2, 0.5 mM MgCl2) and digitonin extraction was performed as indicated above. An aliquot of these extracts was used for β-hexosaminidase activity determination. Cytosolic extracts were lyophilized and resuspended in 1:10 volumes of H2O:CH3CN 1:1 with 1% TFA, and analysed by HPLC (RP-HPLC Agilent Luna 5U C18 100 Å, H2O (0.1% TFA)/CH3CN (0.1% TFA) 100:0 (0→5 min); 100:0→5:95 (5→20 min)) by monitoring the 555-nm absorbance of the TAMRA chromophore.
# The quality of fractionation was assessed by lysosomal β-hexosaminidase activity, using 4-nitrophenyl 2-acetamido-2-deoxy-β-D-glucopyranoside as substrate. Briefly, 20 µl of extract was incubated with 80 µl of 7.5 mM substrate in 100 mM citrate buffer, pH 4.7, for 40 min at 37 °C, and the reaction was stopped by addition of 200 µl of 0.2 M Tris solution. Absorbance at 405 nm was measured in a plate reader. As blank, wells containing only the substrate were used. […]
# HeLa cells [3] = assay: MTT viability with B12Br12^2− or R8; set-up: dose or concentration left out as unconfirmed; details: 3 h in HKR + 24 h medium, mean of five measurements
# Protocol: (§1) The incubation mixtures were replaced with DMEM + 10% FBS + 0.5 mg ml^–1 MTT. For the viability assays in the presence of B12Br12^2− or R8, HeLa, GT1-7, ARPE-19 and A549 cells were seeded the day before in 96-well plates at 6,000 cells per well. Cells were incubated with B12Br12^2− or R8 dissolved in HKR buffer for 3 h and, thereafter, incubated for 24 h with complete medium before incubating with complete medium and 0.5 mg ml^−1 MTT. For viability studies in the presence of MMAF, HeLa cells were incubated with MMAF and B12Br12^2− diluted in DMEM (without serum or antibiotics) for 3 h. Cells were washed with 0.1 mg ml^−1 heparin and further incubated for 21 h in complete medium and 2 h in complete medium containing 0.5 mg ml^−1 MTT. For all types of assays, after 2 h of incubation, the medium was carefully removed, and formazan crystals dissolved by addition of DMSO. The absorbance at 570 nm was measured with a plate reader (Tecan Infinite F200Pro) and the data normalized to the value of untreated cells (100% viability). Data were analysed with R (v. 4.0.3)[54].
# (§2) Cells were incubated with 7 µM phalloidin-TRITC (red) in the absence (left) and presence of 50 µM ^AcR8 (middle) or 50 µM of B12Br12^2− cluster (right) in HKR buffer for 3 h, subsequently stained with Hoechst (blue), washed with DMEM without phenol red, and imaged by confocal fluorescence microscopy; bright-field images in insets. Micrographs from each cell line were processed independently, experiments were performed twice. e, MTT viability assay of the corresponding cell lines (HeLa, GT1-7, ARPE-19 and A549, from left to right) at different concentrations (0, 25, 75, 250, and 500 µM) of B12Br12^2− (black) or ^AcR8 (red); data are mean ± s.d. of five measurements. f, Confocal images of HeLa cells after incubation with 500 nM phalloidin-TRITC and different concentrations B12Br12^2−; the images correspond to those of Fig. 4 in the main text, but are shown with increased brightness to facilitate observation of the actin filaments. Representative images of two biological replicates. All scale bars are […], except for panel f (50 µm). Source data
# [4] = system: adenocarcinoma human alveolar basal epithelial cells A549; assay: MTT viability with B12Br12^2− or R8; set-up: dose or concentration left out as unconfirmed; details: 3 h in HKR + 24 h medium, mean of five measurements
# Protocol: as §1, §2
# [5] = system: Escherichia coli Top10 strain; assay: Kanamycin A delivery in E. coli (OD570 growth); type: cell-based; details: incubation with the cluster alone, up to 1 mM
# Protocol: As a proof-of-principle, we investigated its potential to reduce the minimum inhibitory concentration of kanamycin A, an aminoglycoside antibiotic. Aminoglycosides function by binding to the bacterial 30S ribosomal subunit; consequently, effective passage through the cell wall and plasma membrane is essential for aminoglycosides to reach their intracellular targets. […]
# A preculture of E. coli Top10 cells was incubated overnight in LB medium with 50 µg ml^−1 streptomycin sulfate. […] After 18 h, the optical density at 570 nm, as an indicator of bacterial growth, was measured with a Tecan Infinite F200Pro microplate reader. Data were normalized for each concentration of B12Br12^2− relative to the control condition without antibiotic.
# Solid points indicate mean ± s.d. of three technical replicates. […] Cross-bars indicate mean ± s.d. of three independent experiments (two with technical triplicates, one with technical duplicates); values obtained in each experiment are represented by different shapes. c, Viability of HeLa cells after incubation with different doses of MMAF in the presence of 0, 5 and 10 μM B12Br12^2−. Solid points indicate mean ± s.d. of three technical replicates. d, Corresponding IC50 values of MMAF. […] Source data
substance,measurement,setting,value
B12Br12^2−,DLS of combinations of cluster with the different cargos (aggregates),[1],did not show any detectable signal of particles
same,concentration_uM,"HeLa cells [2]; 0 uM B12Br12 (no carrier), experiment 1",286.3 nM
same,concentration_uM,"HeLa cells [2]; 0 uM B12Br12 (no carrier), experiment 2",345 nM
same,concentration_uM,"HeLa cells [2]; 0 uM B12Br12 (no carrier), experiment 3",274.3 nM
same,concentration_uM,"HeLa cells [2]; 0 uM B12Br12 (no carrier), experiment 4",342.3 nM
same,"concentration_uM, mean",HeLa cells [2]; 0 uM B12Br12 (no carrier),312 nM
same,concentration_uM,"HeLa cells [2]; 10 uM B12Br12, experiment 1",1393 nM
same,concentration_uM,"HeLa cells [2]; 10 uM B12Br12, experiment 2",1647 nM
same,concentration_uM,"HeLa cells [2]; 10 uM B12Br12, experiment 3",1247 nM
same,concentration_uM,"HeLa cells [2]; 10 uM B12Br12, experiment 4",1117 nM
same,"concentration_uM, mean",HeLa cells [2]; 10 uM B12Br12,1351 nM
same,mean_viability,HeLa cells [3]; 25 as printed,104.374%
same,mean_viability,HeLa cells [3]; 75 as printed,100.045%
same,mean_viability,[4]; 25 as printed,106.289%
same,mean_viability,[4]; 75 as printed,109.955%
same,"Bacterial survival, cluster alone",[5],did not affect bacterial survival
